Experimental data published in ChEMBL document CHEMBL1135032, “Binding of aminoglycoside antibiotics with modified A-site 16S rRNA construct containing non-nucleotide linkers” (Bioorg Med Chem Lett, 2002).

Legend:
Format in all cases: nucleic-acid assay
Nucleic Acid [1] = assay: Tested for binding affinity against RNA construct A
Nucleic Acid [2] = assay: Tested for binding affinity against RNA construct B
Nucleic Acid [3] = assay: Tested for binding affinity against RNA construct C; n.b. means no observable binding
Nucleic Acid [4] = assay: Tested for binding affinity against RNA construct D
Nucleic Acid [5] = assay: Tested for binding affinity against RNA construct E
Nucleic Acid [6] = assay: Tested for binding affinity against RNA construct C
Nucleic Acid [7] = assay: Tested for binding affinity against RNA construct A; n.b. means no observable binding
Nucleic Acid [8] = assay: Tested for binding affinity against RNA construct B; n.b. means no observable binding
Nucleic Acid [9] = assay: Tested for binding affinity against RNA construct D; n.b. means no observable binding
Nucleic Acid [10] = assay: Tested for binding affinity against RNA construct E; n.b. means no observable binding

| SMILES | Kd (Nucleic Acid [1]) [nM] | Kd (Nucleic Acid [2]) [nM] | Kd (Nucleic Acid [3]) | Kd (Nucleic Acid [4]) [nM] | Kd (Nucleic Acid [5]) [nM] | Kd (Nucleic Acid [7]) | Kd (Nucleic Acid [8]) | Kd (Nucleic Acid [9]) | Kd (Nucleic Acid [10]) | Kd (Nucleic Acid [6]) [nM] |
| --- | --- | --- | --- | --- | --- | --- | --- | --- | --- | --- |
| NC[C@@H]1O[C@H](O[C@H]2[C@@H](O)[C@H](O[C@@H]3[C@@H](O)[C@H](N)C[C@H](N)[C@H]3O[C@H]3O[C@H](CN)[C@@H](O)[C@H](O)[C@H]3N)O[C@@H]2CO)[C@H](N)[C@@H](O)[C@@H]1O [FRAMYCETIN] | 410 | – | – | 470 | 91 | – | – | – | – | 4340 |
| NC[C@@H]1O[C@H](O[C@H]2[C@@H](O)[C@H](O[C@@H]3[C@@H](O)[C@H](N)C[C@H](N)[C@H]3O[C@H]3O[C@H](CO)[C@@H](O)[C@H](O)[C@H]3N)O[C@@H]2CO)[C@H](N)[C@@H](O)[C@@H]1O [PAROMOMYCIN] | 1640 | 1580 | – | 1700 | 400 | – | – | – | – | 5330 |
| NC[C@H]1O[C@H](O[C@H]2[C@H](O)[C@@H](O[C@H]3O[C@H](CO)[C@@H](O)[C@H](N)[C@H]3O)[C@H](N)C[C@@H]2N)[C@H](N)C[C@@H]1O [TOBRAMYCIN] | 2070 | 2040 | No binding | – | 680 | – | – | – | – | – |

More lines, main results first:

| Kd (Nucleic Acid [1]) [nM] | Kd (Nucleic Acid [2]) [nM] | Kd (Nucleic Acid [3]) | Kd (Nucleic Acid [4]) [nM] | Kd (Nucleic Acid [5]) [nM] | Kd (Nucleic Acid [7]) | Kd (Nucleic Acid [8]) | Kd (Nucleic Acid [9]) | Kd (Nucleic Acid [10]) | SMILES | Kd (Nucleic Acid [6]) [nM] |
| --- | --- | --- | --- | --- | --- | --- | --- | --- | --- | --- |
| 2950 | 2900 | No binding | 2750 | 910 | – | – | – | – | NC[C@H]1O[C@H](O[C@H]2[C@H](O)[C@@H](O[C@H]3O[C@H](CO)[C@@H](O)[C@H](N)[C@H]3O)[C@H](N)C[C@@H]2N)[C@H](N)[C@@H](O)[C@@H]1O [BEKANAMYCIN] | – |
| – | – | No binding | – | – | No binding | No binding | No binding | No binding | CN[C@@H]1[C@H](O[C@H]2[C@H](O[C@H]3[C@H](O)[C@@H](O)[C@H](N=C(N)N)[C@@H](O)[C@@H]3N=C(N)N)O[C@@H](C)[C@]2(O)C=O)O[C@@H](CO)[C@H](O)[C@H]1O [STREPTOMYCIN] | – |
